This note sets out measurements from patent US8178552B2, “7-Azaindole derivatives and their use in the inhibition of c-Jun N-terminal kinase” (Eisai R&D Management Co., Ltd., priority 2008, dated 2012).

SMILES strings stand for the structures. pIC50: −log10 of the molar value.

The target of the test is JNK3 (Homo sapiens, UniProt P53779). Put plainly: JNK3 SPA assay. The settings on record: 3.33 μM ATP, GST-c-Jun substrate; read-out: IC50 against JNK3. The test is classed as biochemical. The protocol: JNK1, JNK2, JNK3—SPA Assay
JNK3, sequence (P53779 whole entry, species assumed): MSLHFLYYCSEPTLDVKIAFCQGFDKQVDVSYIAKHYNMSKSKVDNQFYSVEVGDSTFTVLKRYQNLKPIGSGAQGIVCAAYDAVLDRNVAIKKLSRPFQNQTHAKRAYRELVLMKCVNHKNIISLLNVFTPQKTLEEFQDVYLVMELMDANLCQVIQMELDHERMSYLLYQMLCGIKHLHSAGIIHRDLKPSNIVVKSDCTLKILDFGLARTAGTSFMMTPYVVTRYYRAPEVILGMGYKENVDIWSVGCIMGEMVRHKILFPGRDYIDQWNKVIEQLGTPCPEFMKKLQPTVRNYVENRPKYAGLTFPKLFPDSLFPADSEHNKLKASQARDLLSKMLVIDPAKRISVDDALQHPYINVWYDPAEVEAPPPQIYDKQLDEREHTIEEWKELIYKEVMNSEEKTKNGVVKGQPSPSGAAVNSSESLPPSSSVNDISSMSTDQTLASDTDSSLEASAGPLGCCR
JNK1, JNK2, JNK3—SPA Assay • 1. Compound is dissolved in DMSO to a convenient concentration and this is diluted in 10% DMSO to a five times concentrate of the desired starting concentration (frequently 1:100). • 2. 10 μl of 500 mM EDTA is added to alternative wells of the Opti-plate row, which will receive kinase reaction plus DMSO. This creates the negative control. • 3. For the JNK2 and JNK3 assay, compounds are prepared in six 2-fold dilutions with water and each concentration is tested in duplicate. For the JNK1 assay compounds are prepared in four 5-fold dilutions with water which are tested in triplicate. Controls are treated identically. • 4. 20 μl per well of each compound concentration is transferred to an Opti-plate, in duplicate. • 5. 30 μl (JNK2/3 SPA) or 50 μl (JNK1 SPA) of substrate solution (25 mM HEPES pH 7.5, 10 mM magnesium acetate with 3.33 μM ATP (JNK2/3) or 2 μM ATP (JNK1), approximately 7.5 kBq [γ-^33P] ATP, GST-c-Jun, in water) is added to each well. • 6. 50 μl (JNK2/3 SPA) or 30 μl (JNK1 SPA) of kinase solution (JNK in 25 mM HEPES pH 7.5, 10 mM Mg Acetate) is added to each well.
• 7. The plate is incubated for 30 minutes at room temperature. • 8. 100 μl of bead/stop solution is added to each well (5 mg/ml glutathione-PVT-SPA beads, 40 mM ATP in PBS). • 9. Plates are sealed and incubated for 30 minutes at room temperature, centrifuged for 10 minutes at 2500 g and counted. • 10. The IC50 values are calculated as the concentration of the compound being tested at which the phosphorylation of c-Jun is decreased to 50% of the control value.
What is called pIC50 is the negative decadic logarithm of the IC50, by convention in mol/L. For `Cn1cc(-c2c[nH]c3ncc(C4CCC(C(C)(C)C)CC4)cc23)cn1` (mixture of isomers) [Compound I-4, 5-(4-tert-butylcyclohexyl)-3-(1-methyl-1H-pyrazol-4-yl)-1H-pyrrolo[2,3-b]pyridine], the pIC50 was 6.91.

In the case of `CCC1CCC(c2cnc3[nH]cc(-c4cnn(C)c4)c3c2)CC1` (mixture of isomers) [Compound I-22, 5-(4-ethylcyclohexyl)-3-(1-methyl-1H-pyrazol-4-yl)-1H-pyrrolo[2,3-b]pyridine], the pIC50 was 7.60.

Regarding `CC1CCCC(c2cnc3[nH]cc(-c4cnn(C)c4)c3c2)C1` (mixture of isomers) [Compound I-32, 3-(1-methyl-1H-pyrazol-4-yl)-5-(3-methylcyclohexyl)-1H-pyrrolo[2,3-b]pyridine], the pIC50 was 7.10.

For the compound `CC1CCCCC1c1cnc2[nH]cc(-c3cnn(C)c3)c2c1` (mixture of isomers) [Compound I-33, 3-(1-methyl-1H-pyrazol-4-yl)-5-(2-methylcyclohexyl)-1H-pyrrolo[2,3-b]pyridine], the negative-log IC50 (pIC50) is 6.96.

With `Cn1cc(-c2c[nH]c3ncc(C4CCC(c5ccccc5)CC4)cc23)cn1` (mixture of isomers) [Compound I-35, 3-(1-methyl-1H-pyrazol-4-yl)-5-(4-phenylcyclohexyl)-1H-pyrrolo[2,3-b]pyridine], the pIC50 is 7.04.

As for `CC1CC(c2cnc3[nH]cc(-c4cnn(C)c4)c3c2)CC(C)(C)C1` (mixture of isomers) [Compound I-36, 3-(1-methyl-1H-pyrazol-4-yl)-5-(3,3,5-trimethylcyclohexyl)-1H-pyrrolo[2,3-b]pyridine], the pIC50 is 6.59.

With `CN(C)C1CCC(c2cnc3[nH]cc(-c4cnn(CCN5CCOCC5)c4)c3c2)CC1` (mixture of isomers) [Compound I-56, N,N-dimethyl-4-(3-(1-(2-morpholinoethyl)-1H-pyrazol-4-yl)-1H-pyrrolo[2,3-b]pyridin-5-yl)cyclohexanamine], the pIC50 is 7.15.

For `Cn1cc(-c2c[nH]c3ncc(C4CCC(CN5CCOCC5)CC4)cc23)cn1` (mixture of isomers) [Compound I-73, 3-(1-Methyl-1H-pyrazol-4-yl)-5-(4-morpholin-4-ylmethyl-cyclohexyl)-1H-pyrrolo[2,3-b]pyridine], the pIC50 is 7.13.

Take `CCN(CCO)C1CCC(c2cnc3[nH]cc(-c4cnn(C)c4)c3c2)CC1` (mixture of isomers) [Compound I-131, 2-(ethyl(4-(3-(1-methyl-1H-pyrazol-4-yl)-1H-pyrrolo[2,3-b]pyridin-5-yl)cyclohexyl)amino)ethanol]: the pIC50 was 6.60.

For the compound `CCN(C(C)C)C1CCC(c2cnc3[nH]cc(-c4cnn(C)c4)c3c2)CC1` (mixture of isomers) [Compound I-133, N-ethyl-N-isopropyl-4-(3-(1-methyl-1H-pyrazol-4-yl)-1H-pyrrolo[2,3-b]pyridin-5-yl)cyclohexanamine], the pIC50 is 6.33.

Consider `Cn1cc(-c2c[nH]c3ncc(C4=C[C@H]5O[C@@H]4CC5C(N)=O)cc23)cn1` (mixture of isomers) [Compound I-156, (1R,4R)-5-(3-(1-methyl-1H-pyrazol-4-yl)-1H-pyrrolo[2,3-b]pyridin-5-yl)-7-oxabicyclo[2.2.1]hept-5-ene-2-carboxamide], for which the pIC50 was 5.85.

On to `CN[C@@H]1C[C@H]2C=C(c3cnc4[nH]cc(-c5cnn(C)c5)c4c3)C[C@H](C2)C1` (relative stereo) [Compound I-151, trans N-methyl-7-(3-(1-methyl-1H-pyrazol-4-yl)-1H-pyrrolo[2,3-b]pyridin-5-yl)bicyclo[3.3.1]non-6-en-3-amine], for which the pIC50 is 6.46.

As for `CC1CC=C(c2cnc3[nH]cc(-c4cnn(C)c4)c3c2)CC1` (centres unmarked) [Compound I-1, 3-(1-methyl-1H-pyrazol-4-yl)-5-(4-methylcyclohex-1-enyl)-1H-pyrrolo[2,3-b]pyridine], the negative-log IC50 (pIC50) was 7.74.

With `Cn1cc(-c2c[nH]c3ncc(C4=CCC(C(C)(C)C)CC4)cc23)cn1` (centres unmarked) [Compound I-2, 5-(4-tert-butylcyclohex-1-enyl)-3-(1-methyl-1H-pyrazol-4-yl)-1H-pyrrolo[2,3-b]pyridine], the pIC50 is 6.70.

With `FC(F)n1cc(-c2c[nH]c3ncc(C4=CCC(N5CCOCC5)CC4)cc23)cn1` (centres unmarked) [Compound I-5, 3-(1-Difluoromethyl-1H-pyrazol-4-yl)-5-(4-morpholin-4-yl-cyclohex-1-enyl)-1H-pyrrolo[2,3-b]pyridine], the negative-log IC50 (pIC50) was 6.47.

As to `CCC1CC=C(c2cnc3[nH]cc(-c4cnn(C)c4)c3c2)CC1` (centres unmarked) [Compound I-8, 5-(4-ethylcyclohex-1-enyl)-3-(1-methyl-1H-pyrazol-4-yl)-1H-pyrrolo[2,3-b]pyridine], the pIC50 was 7.80.

Regarding `CN(C)C1CCC(c2cnc3[nH]cc(-c4cnn(C)c4)c3c2)CC1` (centres unmarked) [Compound I-9, N,N-dimethyl-4-(3-(1-methyl-1H-pyrazol-4-yl)-1H-pyrrolo[2,3-b]pyridin-5-yl)cyclohexanamine], the pIC50 is 7.40.

Consider `Cn1cc(-c2c[nH]c3ncc(C4CCCC4)cc23)cn1` [Compound I-11, 5-cyclopentyl-3-(1-methyl-1H-pyrazol-4-yl)-1H-pyrrolo[2,3-b]pyridine], for which the pIC50 was 6.88.

Regarding `Cn1cc(-c2c[nH]c3ncc(C4=CCCCC4)cc23)cn1` [Compound I-12, 5-cyclohexenyl-3-(1-methyl-1H-pyrazol-4-yl)-1H-pyrrolo[2,3-b]pyridine], the pIC50 is 6.96.

In the case of `Cn1cc(-c2c[nH]c3ncc(C4=CCCCCC4)cc23)cn1` [Compound I-13, (E)-5-cycloheptenyl-3-(1-methyl-1H-pyrazol-4-yl)-1H-pyrrolo[2,3-b]pyridine], the pIC50 was 6.90.

Turning to `Cn1cc(-c2c[nH]c3ncc(C4=CCC5(CC4)OCCO5)cc23)cn1` [Compound I-14, 5-(1,4-Dioxa-spiro[4.5]dec-7-en-8-yl)-3-(1-methyl-1H-pyrazol-4-yl)-1H-pyrrolo[2,3-b]pyridine], the pIC50 was 6.65.

As for `Cn1cc(-c2c[nH]c3ncc(C4=CCC(C)(C)CC4)cc23)cn1` [Compound I-15, 5-(4,4-dimethylcyclohex-1-enyl)-3-(1-methyl-1H-pyrazol-4-yl)-1H-pyrrolo[2,3-b]pyridine], the pIC50 is 6.56.

With `Cn1cc(-c2c[nH]c3ncc(C4CCCCCC4)cc23)cn1` [Compound I-17, 5-cycloheptyl-3-(1-methyl-1H-pyrazol-4-yl)-1H-pyrrolo[2,3-b]pyridine], the pIC50 was 6.79.

Regarding `Cn1cc(-c2c[nH]c3ncc(C4CCC(C)(C)CC4)cc23)cn1` [Compound I-18, 5-(4,4-dimethylcyclohexyl)-3-(1-methyl-1H-pyrazol-4-yl)-1H-pyrrolo[2,3-b]pyridine], the pIC50 was 6.54.

For the compound `Cn1cc(-c2c[nH]c3ncc(C4CCC(=O)CC4)cc23)cn1` [Compound I-20, 4-[3-(1-Methyl-1H-pyrazol-4-yl)-1H-pyrrolo[2,3-b]pyridin-5-yl]-cyclohexanone], the pIC50 was 6.64.

Turning to `Cn1cc(-c2c[nH]c3ncc(C4=CCC(C)(C)C=C4)cc23)cn1` [Compound I-21, 5-(4,4-dimethylcyclohexa-1,5-dienyl)-3-(1-methyl-1H-pyrazol-4-yl)-1H-pyrrolo[2,3-b]pyridine], the negative-log IC50 (pIC50) is 7.31.

Consider `Cn1cc(-c2c[nH]c3ncc(C4=CCC(c5ccccc5)CC4)cc23)cn1` (centres unmarked) [Compound I-27, 3-(1-methyl-1H-pyrazol-4-yl)-5-(4-phenylcyclohex-1-enyl)-1H-pyrrolo[2,3-b]pyridine], for which the pIC50 is 6.81.

For the compound `Cn1cc(-c2c[nH]c3ncc(C4=CC(C)(C)CC(C)(C)C4)cc23)cn1` [Compound I-28, 3-(1-methyl-1H-pyrazol-4-yl)-5-(3,3,5,5-tetramethylcyclohex-1-enyl)-1H-pyrrolo[2,3-b]pyridine], the pIC50 is 5.26.

Regarding `COC1=C(c2cnc3[nH]cc(-c4cnn(C)c4)c3c2)CCCC1` [Compound I-31, 5-(2-Methoxy-cyclohex-1-enyl)-3-(1-methyl-1H-pyrazol-4-yl)-1H-pyrrolo[2,3-b]pyridine], the pIC50 was 6.32.

Turning to `Cn1cc(-c2c[nH]c3ncc(C4CC(C)(C)CC(C)(C)C4)cc23)cn1` [Compound I-34, 3-(1-methyl-1H-pyrazol-4-yl)-5-(3,3,5,5-tetramethylcyclohexyl)-1H-pyrrolo[2,3-b]pyridine], the pIC50 is 5.67.

`CN1CCCN([C@H]2CC[C@@H](c3cnc4[nH]cc(-c5cnn(C)c5)c4c3)CC2)CC1` [Compound I-38, 5-((1s,4s)-4-(4-methyl-1,4-diazepan-1-yl)cyclohexyl)-3-(1-methyl-1H-pyrazol-4-yl)-1H-pyrrolo[2,3-b]pyridine]: the negative-log IC50 (pIC50) is 7.01.

In the case of `Cn1cc(-c2c[nH]c3ncc(C4CCC(N5CCC5)CC4)cc23)cn1` (centres unmarked) [Compound I-41, 5-(4-(azetidin-1-yl)cyclohexyl)-3-(1-methyl-1H-pyrazol-4-yl)-1H-pyrrolo[2,3-b]pyridine], the pIC50 is 6.99.
